{
  "source": "patent US9422238B2",
  "about": "“ICMT inhibitors” (National University of Singapore, priority 2012, dated 2016)",
  "origin": "cited, not measured here",
  "tested_on": "several malignant cell lines",
  "settings": "irrespective of Ras status; cited from earlier work",
  "data": [
    {"compound": "COc1cccc(NCCC2(c3ccccc3)CC(C)(C)OC(C)(C)C2)c1", "note": "[3-methoxy-N-[2-(2,2,6,6-tetramethyl-4-phenyltetrahydropyran-4-yl)ethyl]aniline]", "values": [
      {"measurement": "GI50", "value": "≥ 0.3", "unit": "µM"}
    ]}
  ]
}
